Experiments:
GAL4EcR + VP16RXR = assay: Transactivation of reporter gene through switch 1.1 in 3T3 cells; conditions: GAL4CfEcRDEF/VP16MmRXRDEF (switch 1.1), 1.0 μM ligand, 48 hr
From the text: (§1) In various cellular backgrounds, including mammalian cells, insect ecdysone receptor (EcR) heterodimerizes with retinoid X receptor (RXR) and, upon binding of ligand, transactivates genes under the control of ecdysone response elements. […] The prepared receptor constructs comprise a ligand binding domain of EcR and of RXR or of USP; a DNA binding domain of GAL4 or of EcR; and an activation domain of VP16. The reporter constructs include a reporter gene, luciferase or LacZ, operably linked to a synthetic promoter construct that comprises either GAL4 or EcR/USP binding sites (response elements). Various combinations of these receptor and reporter constructs were cotransfected into CHO, NIH3T3, CV1 and 293 cells.
The same procedures described for CHO cells were followed for 3T3 cells as well with two modifications. The cells were plated when they reached 50% confluency. 125,000 or 50,000 or 25,000 cells were plated per well of 6- or 12- or 24-well plates respectively.

GAL4RXR + VP16CfEcR = assay: Transactivation of reporter gene through switch 1.3 in 3T3 cells; conditions: GAL4MmRXRDEF/VP16CfEcRCDEF (switch 1.3), 1.0 μM ligand
From the text: as §1
The same procedures described for CHO cells were followed for 3T3 cells as well with two modifications. The cells were plated when they reached 50% confluency. 125,000 or 50,000 or 25,000 cells were plated per well of 6- or 12- or 24-well plates respectively. […] The ligand treatments were performed as described in the CHO cell section above.

CfEcR = assay: Transactivation through CfEcR- versus DmEcR-based switches in mammalian cell lines (Tables 1–4); design: species or system Choristoneura fumiferana
Protocol: Cells were harvested 24–48 hr after adding ligands. […] Twenty μl of lysate was assayed.

[1] = system: EcR/RXR receptor combinations; assay: Truncated CfEcR and MmRXR receptor combinations, luciferase reporter in NIH3T3 cells; format: cell-based, Choristoneura fumiferana; Mus musculus; conditions: 0, 1, 5 or 25 uM ligand for 48 hr, FIGS. 11–14
Protocol: Briefly, polynucleotides encoding EcR or RXR receptors were truncated at the junctions of A/B, C, D, E and F domains and fused to either a GAL4 DNA binding domain encoding polynucleotide (SEQ ID NO: 43) for CfEcR, or a VP16 activation domain encoding polynucleotide (SEQ ID NO: 49) for MmRXR as described in Example 1. The resulting receptor truncation/fusion polypeptides were assayed in NIH3T3 cells. Plasmid pFRLUC (Stratagene) encoding a luciferase polypeptide was used as a reporter gene construct and pTKRL (Promega) encoding a Renilla luciferase polypeptide under the control of the constitutive TK promoter was used to normalize the transfections as described above. The analysis was performed in triplicates and mean luciferase counts were determined as described above. […]

CfEcRDEF:MmRXRDEF = assay: CfEcR-based yeast two-hybrid assay, LacZ reporter pSH118; format: cell-based, Choristoneura fumiferana; Mus musculus; conditions: yeast strain comprising CfEcRDEF:MmRXRDEF; 0–100 μM ligand for four hours; FIGS. 18 and 19
From the text: This construct results in a LexA:CfEcRDEF fusion that is expressed under the GAL1 promoter.
The D, E, and F domains from mouse (Mus musculus) RXR α (“MmRXRDEF”; SEQ ID NO: 22) were fused to a B42 transactivation domain (“B42AD”; SEQ ID NO: 53) and placed under the control of a GAL1 promoter (SEQ ID NO: 73) in pB42AD (CLONTECH). This construct results in a B42AD:MmRXR-DEF fusion that is expressed under the GAL 1 promoter.
A reporter plasmid comprising a β-galactosidase gene (LacZ; SEQ ID NO: 74) under the control of an 8XLexA operon response element (“8XlexAop”; SEQ ID NO: 75) operably linked to a minimal TATAA region from the GAL1 promoter (p8op-lacZ from CLONTECH) was used to monitor inducible gene expression.
Saccharomyces cerevisiae yeast cells (EGY48; CLONTECH) were used in these experiments. Cells were maintained in liquid culture media with the appropriate drop out amino acids. Standard methods for culture and maintenance of the cells were followed. […]
DNA constructs pSH118, CfEcRDEF, and MmRXRA/BCDEF, MmRXRDEF, or […] were transfected into yeast cells. […] A colony from each group of transformants was grown in the liquid culture in the presence of 0, 0.04, 0.2, 1, 5 and 25 μM GS™-E. The reporter activity was measured as described above 4 hours after adding ligand. Total RLUs were calculated and the numbers on the bars of FIG. 16 show maximum fold induction observed for that group (see FIGS. 16 and 17).
The best performing transformed yeast strain from the analysis above comprising CfEcRDEF:MmRXRDEF was used to determine the induction activity of three steroid ligands (20E, PonA, MurA) and four non-steroid ligands (GS™-E, RH2485, RH5992, RH5849) in this yeast-based format. The yeast cells were cultured in the presence of 0, 0.l, 1, 10, 50 and 100 μM ligands for four hours and the reporter activity was measured as described above. Total RLUs were calculated and the numbers on the top of the bars of FIG. 18 show the maximum fold induction for that group (see FIGS. 18 and 19).

CC(C)CC[C@@H](O)[C@](C)(O)[C@H]1CC[C@@]2(O)C3=CC(=O)[C@]4(O)C[C@@H](O)[C@@H](O)C[C@]4(C)[C@H]3[C@H](O)C[C@]12C [Muristerone A, reference compound]
Mean Fold Induction at 1.0 μM Concentration (GAL4EcR + VP16RXR): 1.0 fold | Mean Fold Induction at 1.0 μM Concentration (GAL4RXR + VP16CfEcR): 1.0 fold

Cc1cc(C)cc(C(=O)N(NC(=O)c2ccc3c(c2C)OCCO3)C(C)(C)C)c1 [N-(3,4-(1,2-ethylenedioxy)-2-methylbenzoyl)-N′-(3,5-dimethylbenzoyl)-N′-tert-butylhydrazine]
Potency as activator of CfEcR compared to DmEcR (CfEcR): more potent activators of CfEcR as compared to Drosophila melanogaster EcR (DmEcR) | Mean Fold Induction at 1.0 μM Concentration (GAL4RXR + VP16CfEcR): 54 fold

CC(C)CC[C@@H](O)[C@](C)(O)[C@H]1CC[C@@]2(O)C3=CC(=O)[C@@H]4C[C@@H](O)[C@@H](O)C[C@]4(C)[C@H]3CC[C@]12C [Ponasterone A, reference compound]
Sensitivity of the EcR/RXR switch to the ligand [1]: insensitive | Mean Fold Induction at 1.0 μM Concentration (GAL4EcR + VP16RXR): 1.0 fold | Mean Fold Induction at 1.0 μM Concentration (GAL4RXR + VP16CfEcR): 1.0 fold

CC(C)(C)N(NC(=O)c1ccccc1)C(=O)c1ccccc1 [RH5849, N-tert-butyl-N,N′-dibenzoylhydrazine]
Induction of gene expression (relative performance of ligands) (CfEcRDEF:MmRXRDEF): did not show a significant response

Reference: patent publication US7091038B2, “Ecdysone receptor-based inducible gene expression system” (RheoGene, Inc., priority 2000, dated 2006)
